Laboratory results: article PMC3480206 (Future microbiology, 2012)
Read-outs that look alike come from different tables or passages of the source.

Experiments:
[1] = test system: Mtb; conditions: at its MIC and at doses used to treat adult pulmonary TB; cited from earlier work
[2] = test system: Mtb; conditions: cited from earlier work
[3] = test system: Mtb gene clusters GC82 and GC120, iniBAC operon; conditions: cited from earlier work
[4] = test system: Mtb; conditions: cited from earlier work; remark: listed apart in the source
[5] = test system: Mtb; conditions: mouse model of TB; cited from earlier work
[6] = test system: Mtb; conditions: versus linezolid; cited from earlier work
[7] = in vivo; cited from earlier work
[8] = test system: Mtb; conditions: in vitro; cited from earlier work
[9] = test system: Mtb; conditions: EBA study; cited from earlier work
[10] = test system: Mycobacterium tuberculosis H37Rv; conditions: cited from earlier work
[11] = test system: Mtb; conditions: cited from earlier work; remark: listed apart in the source
[12] = test system: Mycobacterium tuberculosis H37Rv; experiment: In vitro drug interaction, checkerboard titration by 96-well microdilution; format: cell-based
[13] = test system: Mtb; conditions: cited from earlier work; remark: listed apart in the source
[14] = test system: Mtb; conditions: cited from earlier work; remark: listed apart in the source
[15] = PK evaluation on coadministration with second-line drugs; conditions: mice, SQ109 and MXF coadministered

## CC[C@@H](CO)NCCN[C@@H](CC)CO [EMB, ethambutol]
[1]
  bacteriostatic or bactericidal: bacteriostatic
[2]
  MIC on Mtb: 5 to 7 µg/mL
[3]
  Activity on Mtb gene clusters GC82 and GC120: Upregulates
[4]
  Effect on acid-fastness of Mtb: Decreases

## CC(=O)NC[C@H]1CN(c2ccc(N3CCSCC3)c(F)c2)C(=O)O1 [Sutezolid]
[5]
  antimycobacterial activity versus linezolid: better antimycobacterial activity
[6]
  killing in ex vivo whole-blood culture test: better time-dependent killing
[7]
  safety profile: improved safety profile compared with linezolid
[8]
  antimycobacterial activity versus linezolid: better antimycobacterial activity

## CC(=O)NC[C@H]1CN(c2ccc(N3CCOCC3)c(F)c2)C(=O)O1 [linezolid]
[9]
  early bactericidal activity: minimal killing activity

## COc1nc2ccc(Br)cc2cc1[C@@H](c1ccccc1)[C@@](O)(CCN(C)C)c1cccc2ccccc12 [bedaquiline]
[10]
  improvement of the MIC of bedaquiline: four- to eight-times
[11]; bedaquiline with SQ109
  postantibiotic effect: 14 h
[11]; bedaquiline without SQ109
  postantibiotic effect: 9 h

## CC(C)/N=c1\cc2n(-c3ccc(Cl)cc3)c3ccccc3nc-2cc1Nc1ccc(Cl)cc1 [CFZ, Clofazimine, reference compound]
[12]; Mycobacterium tuberculosis, H37RV, read-out: MIC Alone
  MIC: 0.5 µg/mL
[12]; checkerboard SQ109 + CFZ, Mtb H37Rv
  MIC Combination: 0.062 µg/mL

## Cc1ncc([N+](=O)[O-])n1CCO [Metronidazole]
[13]
  efficacy in mouse models of latent TB: not effective

## CO[C@H]1/C=C/O[C@@]2(C)Oc3c(C)c(O)c4c(O)c(c(/C=N/N5CCN(C)CC5)c(O)c4c3C2=O)NC(=O)/C(C)=C\C=C\[C@H](C)[C@H](O)[C@@H](C)[C@@H](O)[C@@H](C)[C@H](OC(C)=O)[C@@H]1C [RIF, rifampicin, reference compound]
[10]
  improvement of RIF activity: eightfold

## COc1c(N2C[C@@H]3CCCN[C@@H]3C2)c(F)cc2c(=O)c(C(=O)O)cn(C3CC3)c12 [MXF, moxifloxacin, reference compound]
[14]
  activity in mouse models: comparable to INH
[15]
  pharmacology profile on coadministration: not affected

## O=[N+]([O-])c1cn2c(n1)OC[C@@H](OCc1ccc(OC(F)(F)F)cc1)C2 [PA-824]
[9]
  early bactericidal activity: showed activity

## COc1c(N2CCNC(C)C2)c(F)cc2c(=O)c(C(=O)O)cn(C3CC3)c12 (stereo not drawn) [gatifloxacin]
[14]
  activity in mouse models: comparable to INH

## C[C@]1(COc2ccc(N3CCC(Oc4ccc(OC(F)(F)F)cc4)CC3)cc2)Cn2cc([N+](=O)[O-])nc2O1 [Delamanid]
[9]
  early bactericidal activity: showed activity
